In the assay the target is Regulator of G-protein signaling 4 (Homo sapiens, UniProt P49798). Put plainly: small molecules altering RGS4 interaction with Galphao – biochemical, multiplexed bead flow cytometry, SAR compounds, SAR follow-up (AID 2295). (Flow cytometry measures light scatter and fluorescence of single cells or particles in a stream.)

Here are results for 1 compound from BindingDB's records for doi:10.7270/Q27P8WVP (Nmmlsc, 2010).

The structures appear in SMILES notation.

Sequence of Regulator of G-protein signaling 4 (P49798 whole entry): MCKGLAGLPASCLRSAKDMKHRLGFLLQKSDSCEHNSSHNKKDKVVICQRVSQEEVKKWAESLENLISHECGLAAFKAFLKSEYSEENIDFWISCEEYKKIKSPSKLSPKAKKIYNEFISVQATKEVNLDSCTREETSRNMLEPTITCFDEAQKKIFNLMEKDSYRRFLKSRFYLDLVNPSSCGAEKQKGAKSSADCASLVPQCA

`NS(=O)(=O)c1ccc(N=NCc2ccc(O)c(O)c2O)c([N+](=O)[O-])c1` [4-[[(E)-(2,3-dihydroxy-4-oxo-1-cyclohexa-2,5-dienylidene)methyl]hydrazo]-3-nitrobenzenesulfonamide] gave an inhibition constant (Ki) of 1020 nM.

The Ki is the dissociation constant of the complex between target and ligand, obtained from inhibition or displacement. A lower Ki goes with a stronger hold on the target.
